Patent publication US20230295130A1, “COMPOUND USEFUL AS CDK7 KINASE INHIBITOR AND USE THEREOF” (TYK MEDICINES, INC., priority 2020, published 2023)

What was measured:
[1] = test system: ovarian cancer cells OVCAR3; experiment: Cell anti-proliferation experiment, MTT (Table 2); format: cell-based; conditions: Homo sapiens, OVCAR-3, 72 h, incubate 3 days
Source text: (§1) Human breast cancer cells MDA-MB 231, MDA-MB453, ovarian cancer cells OVCAR3 and A2780, colorectal cancer cells HCT-116 and WiDr, and lung cancer cell Calu-6 were purchased from BNCC. DMEM medium (Bio-Channel), DMSO (dimethyl sulfoxide), MTT (thiazole blue), 0.25% EDTA-Tripsin (pancreatin digestive juice), 1×PBS (phosphate buffer, PH7.2), 96-well plate (Corning), fetal bovine serum (FBS), 10,000 U/mL penicillin-G/streptomycin, high-speed freezing centrifuge (EPPENDORF 5810R), enzyme-linked immunosorbent assay (Tecan Spark).
(§2) 1. Cell Plating • A) Tumor cells were cultured to 80-90% density in DMEM (high sugar, containing 10% FBS and 100 U/mL penicillin-G/streptomycin) at 37° C., 5% CO2 and saturated humidity. • B) The culture medium was removed from the 10 cm culture dish. • C) Cells were washed with 10 ml 1×PBS. • D) 4 ml of 0.25% EDTA-Tripsin was added to an incubator to digest pancreatin for 5 minutes at 37° C. and 5% CO2, transferred to a 15 ml centrifuge tube, centrifuged for 5 minutes at 200 g, and supernatant was discarded to obtain cell precipitation. • E) The cell precipitation was resuspended with 4 ml DMEM medium, counted and adjusted to 50,000 cells/ml. • F) Cell suspension was added to a 96-well plate with a volume of 100 μL per well and cultured overnight in a 5% CO2 incubator at 37° C.
(§3) Compound Dilution • A) Preparing the tested compound gradient dilution solution: the tested compounds were prepared into 10 mM and 1 mM storage solution respectively. Firstly, 1 μl and 0.5 μl of 10 mM storage solution were dissolved in 1 ml of DMSO-free culture solution, respectively, to obtain diluted compounds with concentrations of 10 and 5 μM. Then, 1.5 μl of 1 mM storage solution was dissolved in 1.5 ml of DMSO-free culture solution to obtain a dilution compound with a concentration of 1 μM, and then diluted with a 3-fold continuous gradient with […] culture solution for a total of 7 concentrations. The concentrations of all 10 diluted compounds mentioned above were as follows: • 10 μM, 5 μM, 1 μM, 333.33 nM, 111.11 nM, 37.03 nM, 12.35 nM, 4.15 nM, 1.37 nM, 0.46 nM • B) After full mixing, 100 μL of culture compound solution was taken to replace the culture solution in the cell culture plate, with 4 duplicated wells at each concentration; • C) The cells were transferred to incubator to incubate for 3 days.
(§4) 3. MTT Detection • A) The cell culture plate was taken out and added with 5 mg/ml MTT 10 μL in the biosafety cabinet; • B) The cell culture plate was put back into the incubator and continued to incubate for 3 hours; • C) The cell culture plate was taken out to remove the culture solution, 100 μL isopropanol (containing 0.4 mM HCl, 0.1% NP-40) was added, shaking at room temperature for 30 minutes; • D) The absorbance value was measured at 570 nm on TECAN enzyme linked immunosorbent assay.

[2] = test system: ovarian cancer cells A2780; experiment: Cell anti-proliferation experiment, MTT (Table 2); format: cell-based, human; conditions: Homo sapiens, A2780, 72 h, incubate 3 days
Source text: as §1, §2, §3, §4

[3] = biological target: T1, CDK7/Cyclin H/MAT1 kinase (Homo sapiens (Human), UniProt P50613); experiment: Enzyme activity test, mobility shift assay (Table 3); format: biochemical; conditions: 2 mM ATP, pre-incubated 0 and 60 minutes
T1 sequence (P50613 whole entry): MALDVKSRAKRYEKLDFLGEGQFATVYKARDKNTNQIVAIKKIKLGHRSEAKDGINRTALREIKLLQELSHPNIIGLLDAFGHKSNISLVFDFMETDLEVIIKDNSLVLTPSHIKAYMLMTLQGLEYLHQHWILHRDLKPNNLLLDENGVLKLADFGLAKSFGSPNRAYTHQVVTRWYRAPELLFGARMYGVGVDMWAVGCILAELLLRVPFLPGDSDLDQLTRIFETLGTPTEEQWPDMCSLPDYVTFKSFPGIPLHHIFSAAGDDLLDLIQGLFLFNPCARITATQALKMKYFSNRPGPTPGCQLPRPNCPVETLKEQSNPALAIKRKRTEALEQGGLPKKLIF
T1 sequence (P51946 whole entry partner): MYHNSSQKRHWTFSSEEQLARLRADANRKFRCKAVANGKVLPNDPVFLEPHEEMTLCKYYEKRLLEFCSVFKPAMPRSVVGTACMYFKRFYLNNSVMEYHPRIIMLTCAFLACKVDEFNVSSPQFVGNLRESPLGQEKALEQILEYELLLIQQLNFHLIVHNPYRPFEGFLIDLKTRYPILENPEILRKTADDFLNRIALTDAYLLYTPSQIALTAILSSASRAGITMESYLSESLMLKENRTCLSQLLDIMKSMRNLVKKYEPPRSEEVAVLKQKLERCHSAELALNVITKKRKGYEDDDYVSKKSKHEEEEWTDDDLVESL
T1 sequence (P51948 whole entry partner): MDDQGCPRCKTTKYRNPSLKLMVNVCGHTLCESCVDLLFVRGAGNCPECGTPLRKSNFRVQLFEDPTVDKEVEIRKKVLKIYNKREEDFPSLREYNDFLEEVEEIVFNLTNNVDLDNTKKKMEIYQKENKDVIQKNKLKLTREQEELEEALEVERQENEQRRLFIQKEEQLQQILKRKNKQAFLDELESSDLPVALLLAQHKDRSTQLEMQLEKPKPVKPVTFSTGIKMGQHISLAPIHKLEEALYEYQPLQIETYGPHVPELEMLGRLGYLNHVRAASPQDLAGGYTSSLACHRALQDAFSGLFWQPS
Description: IC50 values of the compounds for CDK7 kinase were detected in Wuxi Biortus Biosciences Co. Ltd.
(§5) The compound powder was dissolved in 100% DMSO to prepare a 10 mM storage solution. The storage solution was further diluted to 0.5 mM as the initial concentration, and continuously diluted 3 times to obtain 10 compound solutions with different concentrations. The compound and enzyme were pre-incubated for 0 minutes and 60 minutes, respectively, using duplicate detection.
was used as a positive control, using Mobility shift say method, to detect CDK kinase (such as CDK7, CDK9, CDK12 and CDK2) activity of the compound.

[4] = biological target: T1, CDK7/Cyclin H/MAT1 kinase; experiment: Enzyme activity test, mobility shift assay (Table 1); format: biochemical; conditions: 2 mM ATP; pre-incubated 0 and 60 minutes
CDK2/Cyclin El = CDK2/Cyclin El (Homo sapiens (Human), UniProt P24941); experiment: as above; format: biochemical; conditions: 2 mM ATP; read-out: CDK2 kinase IC50
Description: as §5
(§6) was used as a positive control, and Mobility shift assay method was used to detect CDK kinase (such as CDK7, CDK9, CDK12 and CDK2) activity of the compounds.

CDK9/Cyclin Tl = CDK9/Cyclin Tl (Homo sapiens (Human), UniProt P50750); experiment: as above; format: biochemical; conditions: 2 mM ATP; read-out: CDK9 kinase IC50
Sequence of CDK9/Cyclin Tl (P50750 whole entry): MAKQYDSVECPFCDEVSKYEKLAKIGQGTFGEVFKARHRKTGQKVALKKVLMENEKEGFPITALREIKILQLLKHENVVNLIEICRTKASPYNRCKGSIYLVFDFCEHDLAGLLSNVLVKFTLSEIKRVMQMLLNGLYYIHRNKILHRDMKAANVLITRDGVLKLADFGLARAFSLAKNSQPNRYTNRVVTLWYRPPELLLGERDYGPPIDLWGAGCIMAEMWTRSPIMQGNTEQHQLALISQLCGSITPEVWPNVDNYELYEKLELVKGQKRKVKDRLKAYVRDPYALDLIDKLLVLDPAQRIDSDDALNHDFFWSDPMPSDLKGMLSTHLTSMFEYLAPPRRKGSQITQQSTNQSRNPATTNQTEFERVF
Sequence of CDK9/Cyclin Tl (O60563 whole entry partner): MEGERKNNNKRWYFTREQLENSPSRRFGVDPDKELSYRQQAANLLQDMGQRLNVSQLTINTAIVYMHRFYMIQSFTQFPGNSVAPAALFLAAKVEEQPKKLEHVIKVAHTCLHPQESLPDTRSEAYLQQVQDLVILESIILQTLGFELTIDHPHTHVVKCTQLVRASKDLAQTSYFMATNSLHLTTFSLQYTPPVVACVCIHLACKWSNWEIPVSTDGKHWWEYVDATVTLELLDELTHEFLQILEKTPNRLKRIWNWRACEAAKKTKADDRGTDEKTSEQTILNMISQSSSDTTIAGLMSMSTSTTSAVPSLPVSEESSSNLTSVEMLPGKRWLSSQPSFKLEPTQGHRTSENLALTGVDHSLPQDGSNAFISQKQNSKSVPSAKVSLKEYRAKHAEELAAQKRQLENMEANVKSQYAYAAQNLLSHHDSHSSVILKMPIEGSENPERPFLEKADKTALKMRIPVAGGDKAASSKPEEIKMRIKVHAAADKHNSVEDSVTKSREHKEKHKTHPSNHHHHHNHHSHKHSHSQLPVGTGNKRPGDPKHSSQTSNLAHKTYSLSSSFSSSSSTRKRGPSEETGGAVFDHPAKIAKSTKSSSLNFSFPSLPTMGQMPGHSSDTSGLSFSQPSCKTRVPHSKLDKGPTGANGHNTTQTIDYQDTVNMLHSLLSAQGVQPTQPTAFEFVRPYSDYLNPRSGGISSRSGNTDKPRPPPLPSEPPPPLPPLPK
Description: as §5, §6

[5] = biological target: CDK12 (aa686-1082)/Cyclin K (Homo sapiens (Human), UniProt Q9NYV4); experiment: as above; format: biochemical; conditions: 2 mM ATP; read-out: CDK12 kinase IC50
Sequence of CDK12 (aa686-1082)/Cyclin K (Q9NYV4 686-1082): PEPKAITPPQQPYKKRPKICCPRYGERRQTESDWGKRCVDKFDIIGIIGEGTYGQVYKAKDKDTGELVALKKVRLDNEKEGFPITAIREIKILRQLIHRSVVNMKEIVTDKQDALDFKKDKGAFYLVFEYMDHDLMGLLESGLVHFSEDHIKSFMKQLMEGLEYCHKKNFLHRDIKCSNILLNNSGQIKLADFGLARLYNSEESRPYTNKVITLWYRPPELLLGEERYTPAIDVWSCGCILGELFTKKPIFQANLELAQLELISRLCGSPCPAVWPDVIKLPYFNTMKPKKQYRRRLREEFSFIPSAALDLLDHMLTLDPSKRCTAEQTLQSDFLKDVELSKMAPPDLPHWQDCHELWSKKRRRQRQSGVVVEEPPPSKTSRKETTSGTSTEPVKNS
Sequence of CDK12 (aa686-1082)/Cyclin K (O75909 whole entry partner, the tested form may be a part): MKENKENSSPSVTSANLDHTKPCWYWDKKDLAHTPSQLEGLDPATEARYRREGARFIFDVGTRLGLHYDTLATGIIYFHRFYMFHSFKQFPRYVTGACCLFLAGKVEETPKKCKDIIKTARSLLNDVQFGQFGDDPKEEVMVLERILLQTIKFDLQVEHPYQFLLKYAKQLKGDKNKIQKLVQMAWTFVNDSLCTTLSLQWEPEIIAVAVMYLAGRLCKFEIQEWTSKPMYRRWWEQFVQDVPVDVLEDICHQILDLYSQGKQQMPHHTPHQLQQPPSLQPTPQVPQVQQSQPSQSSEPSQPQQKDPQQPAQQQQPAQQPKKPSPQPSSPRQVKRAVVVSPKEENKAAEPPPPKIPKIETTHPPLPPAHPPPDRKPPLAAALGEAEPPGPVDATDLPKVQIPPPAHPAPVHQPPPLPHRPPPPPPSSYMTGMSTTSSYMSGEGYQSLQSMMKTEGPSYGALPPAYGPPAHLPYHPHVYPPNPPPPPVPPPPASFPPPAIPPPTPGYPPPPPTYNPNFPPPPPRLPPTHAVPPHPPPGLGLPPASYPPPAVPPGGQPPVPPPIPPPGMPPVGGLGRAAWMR
Description: as §5, with “detection. Compound Staurosporine having a structural formula of” for “detection.”
as §6

SMILES | IC50 [1] [nM] | IC50 [2] [nM] | IC50 [3] [nM] | IC50 [4] [nM] | IC50 (CDK2/Cyclin El) [nM] | IC50 (CDK9/Cyclin Tl) [nM] | IC50 [5] [nM]
COC(=O)Nc1ccc2c(-c3nc(N[C@H]4CCCNC4)ncc3C(F)(F)F)c[nH]c2c1C(C)=O [Example T-98] | 127 | 5.55 | – | – | – | – | –
Cc1cc(Nc2ncc(C(F)(F)F)c(-c3c[nH]c4c(P(C)(C)=O)c(C#N)ccc34)n2)n[nH]1 [Example 28] | – | – | < 10 | – | – | – | –
COC(=O)Nc1ccc2c(-c3nc(N[C@H]4CCC(C)(C)NC4)ncc3C(F)(F)F)c[nH]c2c1OCC(F)(F)F [Example T-91] | 80.2 | 8.75 | – | < 50 | – | – | –
CC1(C)CC[C@H](Nc2ncc(C(F)(F)F)c(-c3c[nH]c4c(P(C)(C)=O)c(N5CCCCC5=O)ccc34)n2)CN1 [Example 02] | – | – | < 10 | – | – | – | –
CC1(C)CC[C@H](Nc2ncc(C(F)(F)F)c(-c3c[nH]c4c(S(=O)(=O)C5CCCC5)c(C#N)ccc34)n2)CN1 [Example 23] | – | – | < 10 | – | – | – | –
COC(=O)Nc1ccc2c(-c3nc(N[C@H]4CCC5(CC5)NC4)ncc3C(F)(F)F)c[nH]c2c1Cl [Example T-81] | 55.5 | 1.26 | – | < 50 | > 500 | > 500 | > 500
COC(=O)Nc1ccc2c(-c3nc(N[C@H]4CCCNC4)ncc3C(F)(F)F)c[nH]c2c1C(C)(F)F [Example T-99] | 53.4 | 1.54 | – | < 50 | – | – | –
Cc1cc(Nc2ncc(C(F)(F)F)c(-c3c[nH]c4cc(C#N)ccc34)n2)n[nH]1 [Example 12] | – | – | 10 to 500 | – | – | – | –
COC(=O)Nc1ccc2c(-c3nc(N[C@H]4CCCNC4)ncc3C(F)(F)F)c[nH]c2c1OC(F)(F)F [Example T-122] | – | 0.54 | – | < 50 | – | – | –
COC(=O)Nc1ccc2c(-c3nc(N[C@H]4CCC5(CC5)NC4)ncc3C(F)(F)F)c[nH]c2c1C1CC1 [Example T-128] | 9.08 | 8.68 | – | < 50 | > 500 | > 500 | > 500
COC(=O)Nc1ccc2c(-c3nc(N[C@H]4CCC(C)(C)NC4)ncc3C(F)(F)F)c[nH]c2c1OC(F)F [Example T-108] | – | – | – | < 50 | > 500 | > 500 | > 500
CCOC(=O)Nc1ccc2c(-c3nc(N[C@@H]4CNCC(C)(C)C4)ncc3C(F)(F)F)c[nH]c2c1Br [Example T-43] | – | – | – | < 50 | > 500 | > 500 | > 500
COC(=O)Nc1ccc2c(-c3nc(NC4CC5CNCC5C4)ncc3C(F)(F)F)c[nH]c2c1Br (centres unmarked) [Example T-28] | – | – | – | 50 to 500 | > 500 | > 500 | > 500
